Data set [1] is described as follows: pH of hydrated iron proteinate with or without added compound (Example 4). Conditions: compound added to iron proteinate solution, compound to iron content about 1:1 by weight. The format is physicochemical. As to the method:
(§1) A small amount of the solution was placed on filter paper with a pipette. […] Next, several different organic acids and sugars were added to various samples of the solution. Each was inspected both visually and by placing a small amount of solution on filter paper with a pipette.

Data set [2] in a line: Visual inspection of hydrated iron proteinate with or without added compound (Example 4). The format is physicochemical. To be noted: compound added to iron proteinate solution, compound to iron content about 1:1 by weight. The method, then: as §1
Data set [3] in a line: Filter paper ring characterization of hydrated iron proteinate (Example 4). To be noted: compound added to iron proteinate solution, about 1:1 by weight to iron. It counts as physicochemical. As to the method:
An iron proteinate or iron protein hydrolysate which was hydrolyzed from a vegetable protein was formed having an iron content of about 10%. […] A small amount of the solution was placed on filter paper with a pipette. […] Next, several different organic acids and sugars were added to various samples of the solution. Each was inspected both visually and by placing a small amount of solution on filter paper with a pipette. […] This is evidenced by darker rings remaining on the filter paper which corresponded to location of the waterfront.

Data set [4] can be described thus: Filter paper ring characterization of aqueous iron bisglycinate (Example 3). The format is physicochemical. Conditions: for RING APPEARANCE: compound added to aqueous iron bisglycinate, about 1.8:1 by weight to iron, filter paper after drying.
Data set [5] can be described thus: Visual inspection of aqueous iron bisglycinate with added compound (Example 3). It counts as physicochemical. To be noted: compound added to aqueous iron bisglycinate, compound to iron content about 1.8:1 by weight.
A short description of data set [6]: Visual examination of solutions retained in test tubes (Example 1, Phase 2). Conditions: solution retained in test tube 20 additional hours (after first 4 hours).
Data set [7] is described as follows: Filter paper test of hydrated samples (Example 1, Phase 1). The format is physicochemical. Conditions: hydrated with water sufficient to dissolve, after 4 hours, solution placed on filter paper with pipette. As to the method: After hydrating Sample 1 and Sample 2 with an amount of water sufficient to dissolve the respective powders and allowing 4 hours to pass, a small amount of each solution was placed on filter paper with a pipette. By placing the two solutions on paper in this manner, the respective solutions were allowed to disperse away from the point of application while leaving behind any solids that may have formed.

Take `CC(=O)O` [Acetic Acid]: in data set [1], the pH is reported as 3.0. The VISUAL entry in data set [2] is “no change”. Moreover, the “RING APPEARANCE” value in data set [3] is “dark brown waterfront ring”.

Regarding `O=C1O[C@H]([C@@H](O)CO)C(O)=C1O` [Ascorbic Acid], in data set [1], the pH was determined as 4.5. In addition, the figures for the “RING APPEARANCE” value in data set [4] and in data set [3] were “dark waterfront ring” and “dark brown waterfront ring”, respectively. Moreover, the VISUAL entry was “no precipitation” in data set [5] and “no change” in data set [2].

Take `O=C(O)CC(O)(CC(=O)O)C(=O)O` [Citric Acid]: in data set [1], the pH stood at 1.5. Also, in data set [2], the VISUAL result was “no change”. Besides, the “RING APPEARANCE” value in data set [3] was “dark brown waterfront ring”.

With `CC(O)C(=O)O` (centres unmarked) [Lactic Acid], the pH in data set [1] came to 1.0. For the same compound, the results for the “RING APPEARANCE” value in data set [4] and in data set [3] were “dark waterfront ring” and “dark brown waterfront ring”, respectively. For the same compound, the VISUAL result in data set [5] is “no precipitation”; in data set [2] it was “no change”.

Consider `O=C(O)CC(O)C(=O)O` (centres unmarked) [Malic Acid], for which, in data set [1], the pH is 2.0. Further, the “mobility and solubility on the filter paper” value in data set [4] (added to separate samples of iron bisglycinate, versus control) is “enhancement of mobility and solubility”. Besides, the results for the “RING APPEARANCE” value in data set [4] and in data set [3] were “dark waterfront ring” and “dark brown waterfront ring”, respectively. Also, the VISUAL entry in data set [5] was “no precipitation”; in data set [2], “no change”.

For `NCC(=O)[O-].NCC(=O)[O-].[Fe+2]` [Sample 1, ferrous bisglycinate], the “portion precipitated from solution (visual examination)” value in data set [6] is on record as “approximately 50%”. Moreover, the “solids left behind on filter paper” value in data set [7] was “small clump of precipitate”.

In data set [1], `O=C(O)CCC(=O)O` [Succinic Acid] gave a pH of 2.0. The VISUAL entry in data set [2] is given as “no change”. Further, the “RING APPEARANCE” value in data set [3] is “dark brown waterfront ring”.

As to `OC[C@H]1O[C@@](CO)(O[C@H]2O[C@H](CO)[C@@H](O)[C@H](O)[C@H]2O)[C@@H](O)[C@@H]1O` [Sucrose], the pH in data set [1] is given as 7.0. Moreover, the “RING APPEARANCE” value in data set [4] was “light staggered ring”; in data set [3], “brown staggered rings”. For the same compound, the VISUAL result in data set [5] is listed as “precipitated solids”; in data set [2] it was “no change”.

These data come from patent US6716814B2, “Enhancing solubility of iron amino acid chelates and iron proteinates” (Albion International, Inc., priority 2001, dated 2004).
